Experimental data as given in PubChem BioAssay AID1919010 (Molecular Pharmacology Branch, DTP, NCI, 2023).
Several values for one entry are separate records, joined by “and”; a condition that tells them apart may be missing. Equal values may be shown once. Values belong to the molecule of their own block, whether it stands above or below them.

System: Hs578T complex spheroid growth, percent test/control
Test: Anticancer human tumor Hs578T cell line growth inhibition [AhR];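 also: luminescent viability signal as a proxy for spheroid growth; spheroids exposed to agents for one week after three days of growth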
Settings: for viability, T/C: stronger effect = lower value
In short: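 Complex tumor spheroids co-cultured with HUVEC and human MSC stroma; AhR antagonists tested in combination with standard-of-care and investigational agents. Top concentration at or near clinical Cmax (else 10 microM), half-log dilutions; growth expressed as percent test/control.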

[1] = curve of first compound, second compound 0.1 µM
[2] = curve of first compound, second compound 0.316 µM
[3] = curve of first compound, second compound 1 µM
[4] = curve of first compound, second compound 3.16 µM
[5] = curve of first compound, second compound 10 µM
[6] = second compound 0.1 µM, first compound 0.0316 µM
[7] = second compound 0.1 µM, first compound 0.1 µM
[8] = second compound 0.316 µM, first compound 0.0316 µM
[9] = second compound 0.316 µM, first compound 0.1 µM
[10] = second compound 1 µM, first compound 0.0316 µM
[11] = second compound 1 µM, first compound 0.1 µM
[12] = second compound 3.16 µM, first compound 0.0316 µM
[13] = second compound 3.16 µM, first compound 0.1 µM
[14] = second compound 10 µM, first compound 0.0316 µM
[15] = second compound 10 µM, first compound 0.1 µM
[16] = second compound 0.1 µM, first compound 0.316 µM
[17] = second compound 0.1 µM, first compound 1 µM
[18] = second compound 0.1 µM, first compound 3.16 µM
[19] = second compound 0.1 µM, first compound 10 µM
[20] = second compound 0.316 µM, first compound 0.316 µM
[21] = second compound 0.316 µM, first compound 1 µM
[22] = second compound 0.316 µM, first compound 3.16 µM
[23] = second compound 0.316 µM, first compound 10 µM
[24] = second compound 1 µM, first compound 0.316 µM
[25] = second compound 1 µM, first compound 1 µM
[26] = second compound 1 µM, first compound 3.16 µM
[27] = second compound 1 µM, first compound 10 µM
[28] = second compound 3.16 µM, first compound 0.316 µM
[29] = second compound 3.16 µM, first compound 1 µM
[30] = second compound 3.16 µM, first compound 3.16 µM
[31] = second compound 3.16 µM, first compound 10 µM
[32] = second compound 10 µM, first compound 0.316 µM
[33] = second compound 10 µM, first compound 1 µM
[34] = second compound 10 µM, first compound 3.16 µM
[35] = second compound 10 µM, first compound 10 µM

SMILES: CC[C@@]1(O)C(=O)OCc2c1cc1n(c2=O)Cc2cc3c(CN(C)C)c(O)ccc3nc2-1 + Cc1ccccc1N=Nc1ccc(NC(=O)c2ccnn2C)c(C)c1
IC50 [1]: > 100 nM | IC50 [2]: > 100 nM | IC50 [3]: > 100 nM | IC50 [4]: > 100 nM | IC50 [5]: 76.5 nM | viability, T/C (second compound 0.1 µM, first compound 0.000316 µM): 101% | viability, T/C (second compound 0.1 µM, first compound 0.001 µM): 106% | viability, T/C (second compound 0.1 µM, first compound 0.00316 µM): 89.4% | viability, T/C (second compound 0.1 µM, first compound 0.01 µM): 73.3% | viability, T/C [6]: 69.1% | viability, T/C [7]: 69.2% | viability, T/C (second compound 0.316 µM, first compound 0.000316 µM): 108% | viability, T/C (second compound 0.316 µM, first compound 0.001 µM): 104% | viability, T/C (second compound 0.316 µM, first compound 0.00316 µM): 89.9% | viability, T/C (second compound 0.316 µM, first compound 0.01 µM): 80.7% | viability, T/C [8]: 78.3% | viability, T/C [9]: 68.3% | viability, T/C (second compound 1 µM, first compound 0.000316 µM): 99.2% | viability, T/C (second compound 1 µM, first compound 0.001 µM): 110% | viability, T/C (second compound 1 µM, first compound 0.00316 µM): 96% | viability, T/C (second compound 1 µM, first compound 0.01 µM): 79.8% | viability, T/C [10]: 71.7% | viability, T/C [11]: 61.7% | viability, T/C (second compound 3.16 µM, first compound 0.000316 µM): 94.5% | viability, T/C (second compound 3.16 µM, first compound 0.001 µM): 90.8% | viability, T/C (second compound 3.16 µM, first compound 0.00316 µM): 83.1% | viability, T/C (second compound 3.16 µM, first compound 0.01 µM): 66.8% | viability, T/C [12]: 63.4% | viability, T/C [13]: 55.9% | viability, T/C (second compound 10 µM, first compound 0.000316 µM): 65.3% | viability, T/C (second compound 10 µM, first compound 0.001 µM): 61.3% | viability, T/C (second compound 10 µM, first compound 0.00316 µM): 65.6% | viability, T/C (second compound 10 µM, first compound 0.01 µM): 59.6% | viability, T/C [14]: 50.4% | viability, T/C [15]: 50.1%

SMILES: COc1cc(C2c3cc4c(cc3C(OC3OC5COC(C)OC5C(O)C3O)C3COC(=O)C23)OCO4)cc(OC)c1O (stereo unspecified)
viability, T/C (compound 0.0316 µM): 85.4% and 94.6% and 92.8% | viability, T/C (compound 0.1 µM): 99.7% and 91.7% and 91.5% | viability, T/C (compound 0.316 µM): 84.1% and 88.8% and 79.9% | viability, T/C (compound 1 µM): 66.8% and 82.6% and 69.9% | viability, T/C (compound 3.16 µM): 69.5% and 79.7% and 71.9% | viability, T/C (compound 10 µM): 58.1% and 56.4% and 57.1% | IC50 (curve of compound): > 10000 nM

SMILES: COc1cccc2c1C(=O)c1c(O)c3c(c(O)c1C2=O)CC(O)(C(=O)CO)CC3OC1CC(N)C(O)C(C)O1 (stereo unspecified) + Cc1ccccc1N=Nc1ccc(NC(=O)c2ccnn2C)c(C)c1
IC50 [1]: 240 nM | IC50 [2]: 279 nM | IC50 [3]: 373 nM | IC50 [4]: 353 nM | IC50 [5]: 368 nM | viability, T/C [6]: 89.8% | viability, T/C [7]: 72.5% | viability, T/C [16]: 44.7% | viability, T/C [17]: 10% | viability, T/C [18]: 2.16% | viability, T/C [19]: 2.24% | viability, T/C [8]: 67.9% | viability, T/C [9]: 64.2% | viability, T/C [20]: 48.3% | viability, T/C [21]: 9.72% | viability, T/C [22]: 1.94% | viability, T/C [23]: 2.15% | viability, T/C [10]: 80.4% | viability, T/C [11]: 75% | viability, T/C [24]: 56.3% | viability, T/C [25]: 14.4% | viability, T/C [26]: 1.79% | viability, T/C [27]: 2.15% | viability, T/C [12]: 68.7% | viability, T/C [13]: 63.2% | viability, T/C [28]: 54.5% | viability, T/C [29]: 10.2% | viability, T/C [30]: 1.55% | viability, T/C [31]: 1.85% | viability, T/C [14]: 65.2% | viability, T/C [15]: 64.4% | viability, T/C [32]: 56.6% | viability, T/C [33]: 6.88% | viability, T/C [34]: 1.17% | viability, T/C [35]: 1.93%

SMILES: CCN(c1cc(-c2ccc(CN3CCOCC3)cc2)cc(C(=O)NCc2c(C)cc(C)[nH]c2=O)c1C)C1CCOCC1 + Cc1ccccc1N=Nc1ccc(NC(=O)c2ccnn2C)c(C)c1
IC50 [1]: > 3000 nM | IC50 [2]: > 3000 nM | IC50 [3]: > 3000 nM | IC50 [4]: > 3000 nM | IC50 [5]: > 3000 nM | viability, T/C (second compound 0.1 µM, first compound 0.00949 µM): 97.5% | viability, T/C (second compound 0.1 µM, first compound 0.03 µM): 103% | viability, T/C (second compound 0.1 µM, first compound 0.0949 µM): 94.1% | viability, T/C (second compound 0.1 µM, first compound 0.3 µM): 99.4% | viability, T/C (second compound 0.1 µM, first compound 0.949 µM): 94.4% | viability, T/C (second compound 0.1 µM, first compound 3 µM): 93% | viability, T/C (second compound 0.316 µM, first compound 0.00949 µM): 106% | viability, T/C (second compound 0.316 µM, first compound 0.03 µM): 107% | viability, T/C (second compound 0.316 µM, first compound 0.0949 µM): 104% | viability, T/C (second compound 0.316 µM, first compound 0.3 µM): 111% | viability, T/C (second compound 0.316 µM, first compound 0.949 µM): 108% | viability, T/C (second compound 0.316 µM, first compound 3 µM): 93.8% | viability, T/C (second compound 1 µM, first compound 0.00949 µM): 99.9% | viability, T/C (second compound 1 µM, first compound 0.03 µM): 106% | viability, T/C (second compound 1 µM, first compound 0.0949 µM): 104% | viability, T/C (second compound 1 µM, first compound 0.3 µM): 99.7% | viability, T/C (second compound 1 µM, first compound 0.949 µM): 102% | viability, T/C (second compound 1 µM, first compound 3 µM): 94.9% | viability, T/C (second compound 3.16 µM, first compound 0.00949 µM): 95.3% | viability, T/C (second compound 3.16 µM, first compound 0.03 µM): 88% | viability, T/C (second compound 3.16 µM, first compound 0.0949 µM): 98.6% | viability, T/C (second compound 3.16 µM, first compound 0.3 µM): 83.2% | viability, T/C (second compound 3.16 µM, first compound 0.949 µM): 89.8% | viability, T/C (second compound 3.16 µM, first compound 3 µM): 82.7% | viability, T/C (second compound 10 µM, first compound 0.00949 µM): 63.9% | viability, T/C (second compound 10 µM, first compound 0.03 µM): 67.5% | viability, T/C (second compound 10 µM, first compound 0.0949 µM): 74% | viability, T/C (second compound 10 µM, first compound 0.3 µM): 66.8% | viability, T/C (second compound 10 µM, first compound 0.949 µM): 64% | viability, T/C (second compound 10 µM, first compound 3 µM): 67%

The next lines start with results.

IC50 [1]: 965 nM | IC50 [2]: 1470 nM | IC50 [3]: 1520 nM | IC50 [4]: 862 nM | IC50 [5]: 105 nM
SMILES: NS(=O)(=O)OCC1CC(n2ccc3c(NC4CCc5ccccc54)ncnc32)CC1O (stereo unspecified) + Cc1ccccc1N=Nc1ccc(NC(=O)c2ccnn2C)c(C)c1
viability, T/C [6]: 104% | viability, T/C [7]: 82.5% | viability, T/C [16]: 78.1% | viability, T/C [17]: 45.4% | viability, T/C [18]: 34.6% | viability, T/C [19]: 30.2% | viability, T/C [8]: 108% | viability, T/C [9]: 78.2% | viability, T/C [20]: 71.2% | viability, T/C [21]: 59% | viability, T/C [22]: 36.5% | viability, T/C [23]: 33.7% | viability, T/C [10]: 97.8% | viability, T/C [11]: 74.8% | viability, T/C [24]: 83.1% | viability, T/C [25]: 57.7% | viability, T/C [26]: 35.3% | viability, T/C [27]: 34.7% | viability, T/C [12]: 94.9% | viability, T/C [13]: 71% | viability, T/C [28]: 67.9% | viability, T/C [29]: 45.5% | viability, T/C [30]: 36.5% | viability, T/C [31]: 28% | viability, T/C [14]: 59.4% | viability, T/C [15]: 47.9% | viability, T/C [32]: 43.8% | viability, T/C [33]: 37.5% | viability, T/C [34]: 30.2% | viability, T/C [35]: 25.8%

IC50 (curve of compound): 658 nM and 326 nM and 298 nM
SMILES: CC1COCCN1c1cc(-c2ccnn2C)c2ccnc(-c3ccn[nH]3)c2n1 (stereo unspecified)
viability, T/C (compound 0.00316 µM): 109% and 104% and 102% | viability, T/C (compound 0.01 µM): 105% and 104% and 114% | viability, T/C (compound 0.0316 µM): 97.8% and 102% and 95.5% | viability, T/C (compound 0.1 µM): 78.7% and 81.3% and 77.2% | viability, T/C (compound 0.316 µM): 60.4% and 51% and 48.1% | viability, T/C (compound 1 µM): 44.3% and 36.2% and 37.9%

IC50 (curve of compound): 2910 nM and 1730 nM and 2230 nM
SMILES: O=C(C=Cc1cccc(S(=O)(=O)Nc2ccccc2)c1)NO
viability, T/C (compound 0.0316 µM): 95.1% and 99% and 103% | viability, T/C (compound 0.1 µM): 109% and 96.7% and 106% | viability, T/C (compound 0.316 µM): 91.4% and 95.8% and 88.1% | viability, T/C (compound 1 µM): 73.5% and 71.2% and 72.4% | viability, T/C (compound 3.16 µM): 49.8% and 26% and 40.5% | viability, T/C (compound 10 µM): 1.74% and 0.77% and 1.35%
